This is an account of results in patent publication US20230066011A1, “PYRROLOPYRIMIDINE DERIVATIVE, AND PHARMACEUTICAL COMPOSITION FOR PREVENTING OR TREATING PROTEIN KINASE-RELATED DISEASE COMPRISING SAME AS ACTIVE INGREDIENT” (VORONOI CO., LTD., priority 2019, published 2023).

Assay [1] deals with T1, human GST-DYRK1A (Homo sapiens, UniProt Q13627).
T1 construct: purified human GST-DYRK1A (full length, Thermo Scientifics) enzyme; purchased Thermo Scientifics
The experiment in a line: GST-DYRK1A enzyme inhibition, ADP-Glo kinase assay. Format: biochemical. To be noted: ATP 10 μM, GST-DYRK1A full length, read-out: DYRK1 IC50. As for the experimental part:
(§1) To evaluate an inhibitory activity of the compound according to the present invention against LRRK2, LRRK2 (G2019S), DYRK1, CLK1, and TTK kinases, experiments were performed as follows.
(§2) Each of the Example compounds was reacted with a purified human GST-DYRK1A (full length, Thermo Scientifics) enzyme to evaluate an ability to inhibit an enzyme using a method as described below. A composition of 40 mM Tris-HCl (pH 7.4), 20 mM MgCl2, 0.5 mg/mL BSA, and 50 μM DTT was used as a reaction buffer, and all reactions of test substances were performed in the reaction buffer. In the test, purified ATP (10 μM) and a specific substrate solution were reacted with a human GST-DYRK1A (full length, 10 ng) enzyme at 25° C. for an hour, and the enzyme activities were then determined using an in vitro ADP-Glo™ kinase assay (Promega). An enzyme-activity reaction solution, an ADP-Glo reaction solution, and an enzyme-ability detection solution were reacted at a ratio of 2:2:1 to measure a degree of inhibition of the enzyme activity with luminescence. The degree of inhibition of the enzyme activity according to the treatment concentration of each of the compounds was calculated based on the fluorescence of the enzyme activity of the solvent control which was not treated with the compound. In this case, the concentration of each of the compounds inhibiting 50% of the enzyme activity was determined to be an IC50 (nM) value, and the IC50 (nM) value of each of the compounds was determined from 3 sets of data, and calculated using Prism (Version 5.01; GraphPad) software.
(In general: ADP-Glo first removes unused ATP, then detects ADP through luciferase.)

Assay [2] has as its target T2, human GST-CLK1 (Homo sapiens, UniProt P49759).
T2 construct: purified human GST-CLK1 (129-end, SignalChem) enzyme; purchased SignalChem
The experiment in a line: GST-CLK1 enzyme inhibition, ADP-Glo kinase assay. Format: biochemical. To be noted: ATP 10 μM, GST-CLK1 129-end. As to the method:
as §1
as §2, with “GST-CLK1 (129-end, SignalChem)” for “GST-DYRK1A (full length, Thermo Scientifics)”, “GST-CLK1 (129-end, 3” for “GST-DYRK1A (full length, 10”, “value. The” for “value, and the”

T2 sequence (P49759 129-484 limits assumed): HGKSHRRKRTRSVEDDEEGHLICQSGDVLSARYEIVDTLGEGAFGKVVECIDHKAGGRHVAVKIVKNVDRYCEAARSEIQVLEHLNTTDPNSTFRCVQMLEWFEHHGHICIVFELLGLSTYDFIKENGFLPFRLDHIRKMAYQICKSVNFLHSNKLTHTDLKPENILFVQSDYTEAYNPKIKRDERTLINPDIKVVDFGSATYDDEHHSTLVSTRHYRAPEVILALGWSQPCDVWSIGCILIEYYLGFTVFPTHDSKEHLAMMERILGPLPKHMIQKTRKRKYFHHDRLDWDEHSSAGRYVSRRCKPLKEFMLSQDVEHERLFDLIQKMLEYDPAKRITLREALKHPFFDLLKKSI

By IC50 is commonly meant the concentration needed to halve the response being measured. For the compound `CCNc1nc(Nc2ccc(C(=O)N3CCN(C4COC4)CC3)c3c2OCCO3)nc2[nH]cc(C#N)c12` [Example 265, 4-(ethylamino)-2-((8-(4-(oxetan-3-yl)piperazine-1-carbonyl)-2,3-dihydrobenzo[b][1,4]dioxin-5-yl)amino)-7H-pyrrolo[2,3-d]pyrimidine-5-carbonitrile], the IC50 in assay [1] and in assay [2] was 101 to 300 nM throughout.
For `CC[C@H](C)Nc1nc(Nc2ccc(C(=O)N3CC(CO)(CO)C3)c3c2OCCO3)nc2[nH]cc(C#N)c12` [Example 331, (S)-2-((8-(3,3-bis(hydroxy-methyl)azetidine-1-carbonyl)-2,3-dihydrobenzo[b] [1,4]dioxin-5-yl)amino)-4-(sec-butylamino)-7H-pyrrolo[2,3-d]pyrimidine-5-carbonitrile], the IC50 in assay [1] was 301 to 1000 nM; in assay [2] it was below 100 nM.
`COc1cc(P2(=O)CCN(C3CCOCC3)CC2)ccc1Nc1nc(NC2CCCCC2)c2c(C#N)c[nH]c2n1` [Example 324, 4-(cyclo-hexylamino)-2-((2-methoxy-4-(4-oxido-1-(tetrahydro-2H-pyran-4-yl)-1,4-azaphosphinan-4-yl)phenyl)amino)-7H-pyrrolo[2,3-d]pyrimidine-5-carbonitrile]: the results for the IC50 in assay [1] and in assay [2] were 301 to 1000 nM and below 100 nM, respectively.
Consider `CCCCNc1nc(Nc2ccc(P(C)(C)=O)cc2OC)nc2[nH]cc(C#N)c12` [Example 275, 4-(butylamino)-2-((4-(dimethylphosphoryl)-2-methoxyphenyl)amino)-7H-pyrrolo[2,3-d]pyrimidine-5-carbonitrile], for which the IC50 in assay [1] lay in the range of 301 to 1000 nM; in assay [2] it was 101 to 300 nM.
The like results for `COc1cc(P2(=O)CCN(C3CC3)CC2)ccc1Nc1nc(NC2CCCCC2)c2c(C#N)c[nH]c2n1` [Example 323, 4-(cyclo-hexylamino)-2-((4-(1-cyclopropyl-4-oxido-1,4-azaphosphinan-4-yl)-2-methoxyphenyl)a-mino)-7H-pyrrolo[2,3-d]pyrimidine-5-carbonitrile] were, in that order, 101 to 300 nM and 301 to 1000 nM.
Consider `O=C(c1ccc(Nc2nc(NCC3CCC3)c3c(C(F)(F)F)c[nH]c3n2)c2c1OCCO2)N1CCOCC1` [Example 193, (8-((4-((cyclobutylmethyl)amino)-5-(trifluoromethyl)-7H-pyrrolo[2,3-d]pyrimidin-2-yl)amino)-2,3-dihydrobenzo[b][1,4]dioxin-5-yl)(morpholino)methanone], for which the IC50 in assay [1] and in assay [2] was 301 to 1000 nM each time.
With `COc1cc(S(C)(=O)=O)ccc1Nc1nc(NCC(C)C)c2c(C(F)(F)F)c[nH]c2n1` [Example 180, N^4-isobutyl-N^2-(2-methoxy-4-(methylsulfonyl)phenyl)-5-(trifluoromethyl)-7H-pyrrolo[2,3-d]pyrimidine-2,4-diamine], the IC50 in assay [1] and in assay [2] was 301 to 1000 nM throughout.
In the case of `COc1cc(P2(=O)CCN(C3CC3)CC2)ccc1Nc1nc(NC2CCOCC2)c2c(C#N)c[nH]c2n1` [Example 302, 2-((4-(1-cyclopropyl-4-oxido-1,4-azaphosphinan-4-yl)-2-methoxyphenyl)a-mino)-4-((tetrahydro-2H-pyran-4-yl)amino)-7H-pyrrolo[2,3-d]pyrimidine-5-carbonitrile], the IC50 in assay [1] and in assay [2] was 301 to 1000 nM in each case.
For `COc1cc(P(C)(C)=O)ccc1Nc1nc(NCC(C)C)c2c(C#N)c[nH]c2n1` [Example 255, 2-((4-(dimethylphosphoryl)-2-methoxyphenyl)amino)-4-(isobutylamino)-7H-pyrrolo[2,3-d]pyrimidine-5-carbonitrile], the IC50 in assay [1] and in assay [2] was 301 to 1000 nM each time.
With `CCNc1nc(Nc2ccc(P(C)(C)=O)cc2OC)nc2[nH]cc(C#N)c12` [Example 252, 2-((4-(dimethylphosphoryl)-2-methoxyphenyl)amino)-4-(ethylamino)-7H-pyrrolo[2,3-d]pyrimidine-5-carbonitrile], the figures for the IC50 in assay [1] and in assay [2] were 101 to 300 nM and 301 to 1000 nM, respectively.
The like results for `O=C(c1ccc(Nc2nc(NCC3CC3)c3c(C(F)(F)F)c[nH]c3n2)c2c1OCCO2)N1CCOCC1` [Example 201, (8-((4-((cyclopropylmethyl)amino)-5-(trifluoromethyl)-7H-pyrrolo[2,3-d]pyrimidin-2-yl)amino)-2,3-dihydrobenzo[b][1,4]dioxin-5-yl)(morpholino)methanone] were, in that order, 301 to 1000 nM and below 100 nM.
The like results for `COCCNc1nc(Nc2ccc(C(=O)N3CCOCC3)c3c2OCC3)nc2[nH]cc(C#N)c12` [Example 358, 4-((2-methoxy-ethyl)ami-no)-2-((4-(morpholine-4-carbonyl)-2,3-dihydrobenzo-furan-7-yl)amino)-7H-pyrrolo[2,3-d]pyrimidine-5-carbonitrile] were, in that order, 101 to 300 nM and 101 to 300 nM.
In the case of `N#Cc1c[nH]c2nc(Nc3ccc(C(=O)N4CC(CO)(CO)C4)c4c3OCCO4)nc(NC3CCOCC3)c12` [Example 337, 2-((8-(3,3-bis (hydroxymethyl)azetidine-1-carbonyl)-2,3-dihydrobenzo[b] [1,4]dioxin-5-yl)amino)-4-((tetrahydro-2H-pyran-4-yl)amino)-7H-pyrrolo[2,3-d]pyrimidine-5-carbonitrile], the values for the IC50 in assay [1] and in assay [2] were 301 to 1000 nM and below 100 nM, respectively.
Turning to `CCCNc1nc(Nc2ccc(C(=O)N3CCOCC3)c3c2OCC3)nc2[nH]cc(C(F)(F)F)c12` [Example 445, morpholino(7-((4-(propylamino)-5-(trifluoromethyl)-7H-pyrrolo[2,3-d]pyrimidin-2-yl)amino)-2,3-dihydrobenzo-furan-4-yl)methanone], the 50% inhibitory concentration (IC50) in assay [1] and in assay [2] was below 100 nM throughout.
In the case of `COc1cc(P(C)(C)=O)ccc1Nc1nc(NC(C)C)c2c(C(F)(F)F)c[nH]c2n1` [Example 371, (4-((4-(isopropylamino)-5-(trifluoromethyl)-7H-pyrrolo[2,3-d]pyrimidin-2-yl)amino)-3-methoxyphenyl) dimethyl phosphine oxide], the IC50 in assay [1] fell in the range of 301 to 1000 nM; in assay [2], 101 to 300 nM.
The like results for `CC[C@H](C)Nc1nc(Nc2ccc(S(C)(=O)=O)cc2OC)nc2[nH]cc(C(F)(F)F)c12` [Example 380, (S)-N^4-(sec-butyl)-N^2-(2-methoxy-4-(methylsulfonyl)phenyl)-5-(trifluoromethyl)-7H-pyrrolo[2,3-d]pyrimidine-2,4-diamine] were, in that order, 301 to 1000 nM and 301 to 1000 nM.
The like results for `COc1cc(P(C)(C)=O)ccc1Nc1nc(NCC(C)C)c2c(C(F)(F)F)c[nH]c2n1` [Example 370, (4-((4-(isobutylamino)-5-(trifluoromethyl)-7H-pyrrolo[2,3-d]pyrimidin-2-yl)amino)-3-methoxyphenyl) dimethyl-phosphine oxide] were, in that order, 301 to 1000 nM and below 100 nM.
For the compound `CC[C@H](C)Nc1nc(Nc2ccc(P3(=O)CCN(C4CC4)CC3)cc2OC)nc2[nH]cc(C#N)c12` [Example 296, (S)-4-(sec-butylamino)-2-((4-(1-cyclopropyl-4-oxido-1,4-azaphosphinan-4-yl)-2-methoxyphenyl)a-mino)-7H-pyrrolo[2,3-d]pyrimidine-5-carbonitrile], the IC50 in assay [1] and in assay [2] was 301 to 1000 nM each time.
Consider `COc1cc(P(C)(C)=O)ccc1Nc1nc(NCC2CC2)c2c(C#N)c[nH]c2n1` [Example 273, 4-((cyclopropylmethyl)amino)-2-((4-(dimethylphosphoryl)-2-methoxyphenyl)amino)-7H-pyrrolo[2,3-d]pyrimidine-5-carbonitrile], for which the IC50 is 301 to 1000 nM in assay [1] and 101 to 300 nM in assay [2].
The like results for `COc1cc(P(C)(C)=O)ccc1Nc1nc(NC2CCCCC2)c2c(C(F)(F)F)c[nH]c2n1` [Example 196, (4-((4-(cyclohexylamino)-5-(trifluoromethyl)-7H-pyrrolo[2,3-d]pyrimidin-2-yl)amino)-3-methoxyphenyl)dimethylphosphine oxide] were, in that order, 101 to 300 nM and 301 to 1000 nM.
